“And” between values parts separate entries of the source, which are not always exact repeats. Equal values may be shown once.
Test system: 156681-154-R-J1 tumor spheroid viability
Assay: Anticancer human tumor 156681-154-R-J1 patient-derived melanoma cell line growth inhibition
Conditions: spheroids with HUVEC and MSC; for viability, T/C: stronger effect = lower value; active = viability on the fitted dose curve at most 10% of control; inactive = the rest
Method in brief: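 Complex tumor spheroids combined malignant cells with endothelial cells and mesenchymal stem cells. DNA-damaging drugs and DNA repair inhibitors were tested alone and in combination, at half-log dilutions down from clinical Cmax (top 10 microM if Cmax unknown), 0.25% DMSO final.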
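Also: spheroids exposed to compounds for 7 days before readout.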
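For viability, T/C in this document: percent of vehicle control viability where 100% = DMSO-treated spheroids.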

O=C(c1cc(Cc2n[nH]c(=O)c3ccccc23)ccc1F)N1CCN(C(=O)C2CC2)CC1 + Cn1nnc2c(C(N)=O)ncn2c1=O
14.7 µM: IC50 (curve of first compound, second compound 10 µM)
> 30 µM: IC50 (curve of first compound, second compound 1 µM)
inactive: viability, T/C (second compound 1 µM, first compound 0.0949 µM) 92.1% | viability, T/C (second compound 1 µM, first compound 0.3 µM) 74.6% | viability, T/C (second compound 1 µM, first compound 0.949 µM) 97.5% | viability, T/C (second compound 1 µM, first compound 3 µM) 80.2% | viability, T/C (second compound 1 µM, first compound 9.49 µM) 66.5% | viability, T/C (second compound 1 µM, first compound 30 µM) 50.3% | viability, T/C (second compound 3.16 µM, first compound 0.0949 µM) 81.1% | viability, T/C (second compound 3.16 µM, first compound 0.3 µM) 86.4% | viability, T/C (second compound 3.16 µM, first compound 0.949 µM) 78.3% | viability, T/C (second compound 3.16 µM, first compound 3 µM) 74.2% | viability, T/C (second compound 3.16 µM, first compound 9.49 µM) 52.1% | viability, T/C (second compound 3.16 µM, first compound 30 µM) 48.3% | viability, T/C (second compound 10 µM, first compound 0.0949 µM) 85.2% | viability, T/C (second compound 10 µM, first compound 0.3 µM) 81.3% | viability, T/C (second compound 10 µM, first compound 0.949 µM) 70.5% | viability, T/C (second compound 10 µM, first compound 3 µM) 68.5% | viability, T/C (second compound 10 µM, first compound 9.49 µM) 55.6% | viability, T/C (second compound 10 µM, first compound 30 µM) 40.9% | viability, T/C (second compound 31.6 µM, first compound 0.0949 µM) 69% | viability, T/C (second compound 31.6 µM, first compound 0.3 µM) 63.3% | viability, T/C (second compound 31.6 µM, first compound 0.949 µM) 48.4% | viability, T/C (second compound 31.6 µM, first compound 3 µM) 44.5% | viability, T/C (second compound 31.6 µM, first compound 9.49 µM) 35.6% | viability, T/C (second compound 31.6 µM, first compound 30 µM) 27.4% | viability, T/C (second compound 100 µM, first compound 0.0949 µM) 36.8% | viability, T/C (second compound 100 µM, first compound 0.3 µM) 34.4% | viability, T/C (second compound 100 µM, first compound 0.949 µM) 27.4% | viability, T/C (second compound 100 µM, first compound 3 µM) 22.6% | viability, T/C (second compound 100 µM, first compound 9.49 µM) 15.1% | viability, T/C (second compound 100 µM, first compound 30 µM) 21.6%
< 0.0949 µM: IC50 (curve of first compound, second compound 100 µM)
1.2 µM: IC50 (curve of first compound, second compound 31.6 µM)
18.2 µM: IC50 (curve of first compound, second compound 3.16 µM)

O=C(c1cc(Cc2n[nH]c(=O)c3ccccc23)ccc1F)N1CCN(C(=O)C2CC2)CC1
> 30 µM: IC50 (curve of compound)
inactive: viability, T/C (compound 0.0949 µM) 84% and 87.4% and 95% | viability, T/C (compound 0.3 µM) 82.5% and 83.7% and 107% | viability, T/C (compound 0.949 µM) 103% and 85.3% and 77.8% | viability, T/C (compound 3 µM) 64.4% and 72.5% and 82.7% | viability, T/C (compound 9.49 µM) 62.2% and 60.3% and 65.8% | viability, T/C (compound 30 µM) 50.7% and 52.9% and 63.1%

COc1cc(C)[nH]c(=O)c1CN1CCc2c(Cl)cc(C(OC)C3COC3)c(Cl)c2C1=O (configuration not stated) + COc1cc2c(cc1O)CCNC21CSC2c3c(OC(C)=O)c(C)c4c(c3C(COC1=O)N1C(O)C3Cc5cc(C)c(OC)c(O)c5C(C21)N3C)OCO4
< 0.0316 µM: IC50 (curve of first compound, second compound 0.000949 µM) | IC50 (curve of first compound, second compound 0.003 µM)
inactive: viability, T/C (second compound 30 pM, first compound 0.0316 µM) 88.8% | viability, T/C (second compound 30 pM, first compound 0.1 µM) 112% | viability, T/C (second compound 30 pM, first compound 0.316 µM) 94.9% | viability, T/C (second compound 30 pM, first compound 1 µM) 93.3% | viability, T/C (second compound 30 pM, first compound 3.16 µM) 92.6% | viability, T/C (second compound 30 pM, first compound 10 µM) 120% | viability, T/C (second compound 94.9 pM, first compound 0.0316 µM) 90.9% | viability, T/C (second compound 94.9 pM, first compound 0.1 µM) 98.3% | viability, T/C (second compound 94.9 pM, first compound 0.316 µM) 106% | viability, T/C (second compound 94.9 pM, first compound 1 µM) 116% | viability, T/C (second compound 94.9 pM, first compound 3.16 µM) 106% | viability, T/C (second compound 94.9 pM, first compound 10 µM) 98.1% | viability, T/C (second compound 0.0003 µM, first compound 0.0316 µM) 77.9% | viability, T/C (second compound 0.0003 µM, first compound 0.1 µM) 82.3% | viability, T/C (second compound 0.0003 µM, first compound 0.316 µM) 87.7% | viability, T/C (second compound 0.0003 µM, first compound 1 µM) 80.1% | viability, T/C (second compound 0.0003 µM, first compound 3.16 µM) 73.3% | viability, T/C (second compound 0.0003 µM, first compound 10 µM) 67.2%
> 10 µM: IC50 (curve of first compound, second compound 30 pM) | IC50 (curve of first compound, second compound 94.9 pM) | IC50 (curve of first compound, second compound 0.0003 µM)
active: viability, T/C (second compound 0.000949 µM, first compound 0.0316 µM) 6.81% | viability, T/C (second compound 0.000949 µM, first compound 0.1 µM) 5.99% | viability, T/C (second compound 0.000949 µM, first compound 0.316 µM) 5.88% | viability, T/C (second compound 0.000949 µM, first compound 1 µM) 5.47% | viability, T/C (second compound 0.000949 µM, first compound 3.16 µM) 3.42% | viability, T/C (second compound 0.000949 µM, first compound 10 µM) 2.93% | viability, T/C (second compound 0.003 µM, first compound 0.0316 µM) 0.33% | viability, T/C (second compound 0.003 µM, first compound 0.1 µM) 0.34% | viability, T/C (second compound 0.003 µM, first compound 0.316 µM) 0.33% | viability, T/C (second compound 0.003 µM, first compound 1 µM) 0.41% | viability, T/C (second compound 0.003 µM, first compound 3.16 µM) 0.38% | viability, T/C (second compound 0.003 µM, first compound 10 µM) 0.48%

From PubChem BioAssay AID1845195 (Molecular Pharmacology Branch, DTP, NCI, 2023)
